Measurements reported in ChEMBL document CHEMBL5724914, “Linking interpersonal differences in gut microbiota composition and drug biotransformation activity” (2024).

test: (§1) The drug is tested on Z-029 corresponding to rat gut metagenome with ENA study accession number: PRJEB37062 and ENA sample accession number: ERS12561828 for biotransformation under anaerobic condition. The drug concentrations were measured over 9 timepoints collected between 0 and 24 hours of incubation by liquid-chromatography-coupled mass spectrometry (LC–MS); settings: 2 µM
Also: call rule not given here.

Bacterial Biotransformation	SMILES
Compound NOT metabolized	Fc1ccc([C@@H]2CCNC[C@H]2COc2ccc3c(c2)OCO3)cc1 [PAROXETINE]
Compound metabolized	N#Cc1ccc(C(c2ccc(C#N)cc2)n2cncn2)cc1 [LETROZOLE]

test: as §1, with “on Z-018” for “on Z-029”, “to pig” for “to rat”, “number: ERS12561817” for “number: ERS12561828”; settings: 2 µM

Bacterial Biotransformation	SMILES
Compound NOT metabolized	Fc1ccc([C@@H]2CCNC[C@H]2COc2ccc3c(c2)OCO3)cc1 [PAROXETINE]
Compound NOT metabolized	N#Cc1ccc(C(c2ccc(C#N)cc2)n2cncn2)cc1 [LETROZOLE]

test: as §1, with “Z-012” for “Z-029”, “to” for “to rat gut”, “ERS12561812” for “ERS12561828”; settings: 2 µM

Bacterial Biotransformation	SMILES
Compound NOT metabolized	Fc1ccc([C@@H]2CCNC[C@H]2COc2ccc3c(c2)OCO3)cc1 [PAROXETINE]
Compound NOT metabolized	N#Cc1ccc(C(c2ccc(C#N)cc2)n2cncn2)cc1 [LETROZOLE]

test: as §1, with “Z-007” for “Z-029”, “ERS12561807” for “ERS12561828”; settings: 2 µM

Bacterial Biotransformation	SMILES
Compound NOT metabolized	Fc1ccc([C@@H]2CCNC[C@H]2COc2ccc3c(c2)OCO3)cc1 [PAROXETINE]
Compound NOT metabolized	N#Cc1ccc(C(c2ccc(C#N)cc2)n2cncn2)cc1 [LETROZOLE]

test: as §1, with “Z-005” for “Z-029”, “to” for “to rat gut”, “ERS12561805” for “ERS12561828”; settings: 2 µM

Bacterial Biotransformation	SMILES
Compound metabolized	Fc1ccc([C@@H]2CCNC[C@H]2COc2ccc3c(c2)OCO3)cc1 [PAROXETINE]
Compound NOT metabolized	N#Cc1ccc(C(c2ccc(C#N)cc2)n2cncn2)cc1 [LETROZOLE]

test: as §1, with “on Z-003” for “on Z-029”, “to pig” for “to rat”, “number: ERS12561803” for “number: ERS12561828”; settings: 2 µM

Bacterial Biotransformation	SMILES
Compound metabolized	Fc1ccc([C@@H]2CCNC[C@H]2COc2ccc3c(c2)OCO3)cc1 [PAROXETINE]
Compound NOT metabolized	N#Cc1ccc(C(c2ccc(C#N)cc2)n2cncn2)cc1 [LETROZOLE]

test: as §1, with “on WLS-350” for “on Z-029”, “to human” for “to rat”, “number: ERS12561789” for “number: ERS12561828”; settings: 2 µM

Bacterial Biotransformation	SMILES
Compound metabolized	Fc1ccc([C@@H]2CCNC[C@H]2COc2ccc3c(c2)OCO3)cc1 [PAROXETINE]
Compound NOT metabolized	N#Cc1ccc(C(c2ccc(C#N)cc2)n2cncn2)cc1 [LETROZOLE]

test: as §1, with “on WLS-240” for “on Z-029”, “to human” for “to rat”, “number: ERS12561773” for “number: ERS12561828”; settings: 2 µM

Bacterial Biotransformation	SMILES
Compound metabolized	Fc1ccc([C@@H]2CCNC[C@H]2COc2ccc3c(c2)OCO3)cc1 [PAROXETINE]
Compound NOT metabolized	N#Cc1ccc(C(c2ccc(C#N)cc2)n2cncn2)cc1 [LETROZOLE]

test: as §1, with “on WLS-082” for “on Z-029”, “to human” for “to rat”, “number: ERS12561751” for “number: ERS12561828”; settings: 2 µM

Bacterial Biotransformation	SMILES
Compound metabolized	Fc1ccc([C@@H]2CCNC[C@H]2COc2ccc3c(c2)OCO3)cc1 [PAROXETINE]
Compound NOT metabolized	N#Cc1ccc(C(c2ccc(C#N)cc2)n2cncn2)cc1 [LETROZOLE]

settings: human gut metagenome, 24 h, 2 µM

Bacterial Biotransformation	SMILES
Compound metabolized	Fc1ccc([C@@H]2CCNC[C@H]2COc2ccc3c(c2)OCO3)cc1 [PAROXETINE]
Compound NOT metabolized	N#Cc1ccc(C(c2ccc(C#N)cc2)n2cncn2)cc1 [LETROZOLE]

settings: human gut metagenome, 24 h, 2 µM; remark: another data set of the same source

Bacterial Biotransformation	SMILES
Compound NOT metabolized	Fc1ccc([C@@H]2CCNC[C@H]2COc2ccc3c(c2)OCO3)cc1 [PAROXETINE]
Compound NOT metabolized	N#Cc1ccc(C(c2ccc(C#N)cc2)n2cncn2)cc1 [LETROZOLE]

settings: human gut metagenome, 24 h, 2 µM; remark: another data set of the same source

Bacterial Biotransformation	SMILES
Compound metabolized	Fc1ccc([C@@H]2CCNC[C@H]2COc2ccc3c(c2)OCO3)cc1 [PAROXETINE]
Compound NOT metabolized	N#Cc1ccc(C(c2ccc(C#N)cc2)n2cncn2)cc1 [LETROZOLE]

settings: human gut metagenome, 24 h, 2 µM; remark: another data set of the same source

Bacterial Biotransformation	SMILES
Compound metabolized	Fc1ccc([C@@H]2CCNC[C@H]2COc2ccc3c(c2)OCO3)cc1 [PAROXETINE]
Compound NOT metabolized	N#Cc1ccc(C(c2ccc(C#N)cc2)n2cncn2)cc1 [LETROZOLE]

settings: human gut metagenome, 24 h, 2 µM; remark: another data set of the same source

Bacterial Biotransformation	SMILES
Compound metabolized	Fc1ccc([C@@H]2CCNC[C@H]2COc2ccc3c(c2)OCO3)cc1 [PAROXETINE]
Compound NOT metabolized	N#Cc1ccc(C(c2ccc(C#N)cc2)n2cncn2)cc1 [LETROZOLE]

settings: human gut metagenome, 24 h, 2 µM; remark: another data set of the same source

Bacterial Biotransformation	SMILES
Compound NOT metabolized	Fc1ccc([C@@H]2CCNC[C@H]2COc2ccc3c(c2)OCO3)cc1 [PAROXETINE]
Compound NOT metabolized	N#Cc1ccc(C(c2ccc(C#N)cc2)n2cncn2)cc1 [LETROZOLE]

settings: human gut metagenome, 24 h, 2 µM; remark: another data set of the same source

Bacterial Biotransformation	SMILES
Compound metabolized	Fc1ccc([C@@H]2CCNC[C@H]2COc2ccc3c(c2)OCO3)cc1 [PAROXETINE]
Compound NOT metabolized	N#Cc1ccc(C(c2ccc(C#N)cc2)n2cncn2)cc1 [LETROZOLE]

settings: human gut metagenome, 24 h, 2 µM; remark: another data set of the same source

Bacterial Biotransformation	SMILES
Compound metabolized	Fc1ccc([C@@H]2CCNC[C@H]2COc2ccc3c(c2)OCO3)cc1 [PAROXETINE]
Compound NOT metabolized	N#Cc1ccc(C(c2ccc(C#N)cc2)n2cncn2)cc1 [LETROZOLE]

settings: human gut metagenome, 24 h, 2 µM; remark: another data set of the same source

Bacterial Biotransformation	SMILES
Compound NOT metabolized	Fc1ccc([C@@H]2CCNC[C@H]2COc2ccc3c(c2)OCO3)cc1 [PAROXETINE]
Compound NOT metabolized	N#Cc1ccc(C(c2ccc(C#N)cc2)n2cncn2)cc1 [LETROZOLE]

settings: human gut metagenome, 24 h, 2 µM; remark: another data set of the same source

Bacterial Biotransformation	SMILES
Compound metabolized	Fc1ccc([C@@H]2CCNC[C@H]2COc2ccc3c(c2)OCO3)cc1 [PAROXETINE]
Compound NOT metabolized	N#Cc1ccc(C(c2ccc(C#N)cc2)n2cncn2)cc1 [LETROZOLE]

settings: human gut metagenome, 24 h, 2 µM; remark: another data set of the same source

Bacterial Biotransformation	SMILES
Compound metabolized	Fc1ccc([C@@H]2CCNC[C@H]2COc2ccc3c(c2)OCO3)cc1 [PAROXETINE]
Compound NOT metabolized	N#Cc1ccc(C(c2ccc(C#N)cc2)n2cncn2)cc1 [LETROZOLE]
